Tested on: Caco-2 cells
Test: Caco-2 cell uptake assay of valsartan with Mrp2/P-gp inhibitors and irradiation
Settings: valsartan 10 μM, 5 Gy X-ray 24 h before

SMILES: CCCCC(=O)N(Cc1ccc(-c2ccccc2-c2nnn[nH]2)cc1)[C@H](C(=O)O)C(C)C [valsartan, Valsartan]
- valsartan uptake in Caco-2 cells, IR group compared with control group (1 h, p < 0.05): significant reduction
- valsartan uptake in Caco-2 cells, IR group compared with control group (2 h): no significant difference

Reference: article PMC11860126, “X-Ray Irradiation Induces Oxidative Stress and Upregulates Intestinal Nrf2-Mrp2 Pathway, Leading to Decreased Intestinal Absorption of Valsartan” (Pharmaceutics, 2025)
